Where “and” joins values, the source holds several entries; their conditions need not be identical. Equal entries are not always repeated. Inconclusive results are not listed.

The assay relates to BDF1 mice, colon carcinoma 38 sc, T/C %. As to the kind of experiment: NCI In Vivo Anticancer Drug Screen. Data for tumor model Colon Carcinoma 38 (subcutaneous) in B6D2F1 (BDF1) mice. Conditions: endpoint: median tumor weight (est.), higher = larger tumour. An outline of the steps:
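T/C readout: treated group (T) measurement over vehicle control group (C) measurement. Endpoint is survival or tumor size in mice bearing a transplanted tumor.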

Setting [1] is: dose: 12.5 mg/kg/injection, schedule: Q07DX002 (ip), vehicle: saline with Tween-80.
The mark [2] stands for this setting: dose: 25.0 mg/kg/injection, schedule: Q07DX002 (ip), vehicle: saline with Tween-80.
The mark [3] stands for this setting: dose: 50.0 mg/kg/injection, schedule: Q07DX002 (ip), vehicle: saline with Tween-80.
[4] abbreviates: dose: 100.0 mg/kg/injection, schedule: Q07DX002 (ip), vehicle: saline with Tween-80.
[5] abbreviates: dose: 200.0 mg/kg/injection, schedule: Q07DX002 (ip), vehicle: saline with Tween-80.
Where [6] appears, read: dose: 400.0 mg/kg/injection, schedule: Q07DX002 (ip), vehicle: saline with Tween-80.
The mark [7] stands for this setting: dose: 25.0 mg/kg/injection, schedule: Q07DX002 (ip), vehicle: Klucel (hydroxypropylcellulose) (HPC).
Where [8] appears, read: dose: 200.0 mg/kg/injection, schedule: Q07DX002 (ip), vehicle: Klucel (hydroxypropylcellulose) (HPC).
The mark [9] stands for this setting: dose: 3.12 mg/kg/injection, schedule: Q07DX002 (ip), vehicle: saline.
Where [10] appears, read: dose: 6.25 mg/kg/injection, schedule: Q07DX002 (ip), vehicle: saline.
Where [11] appears, read: dose: 6.25 mg/kg/injection, schedule: Q07DX002 (ip), vehicle: suspension in saline.
Setting [12] is: dose: 100.0 mg/kg/injection, schedule: Q07DX002 (ip), vehicle: saline.
The mark [13] stands for this setting: dose: 12.5 mg/kg/injection, schedule: Q07DX002 (ip), vehicle: saline.

Take `COc1cc2c(cc1O)N=C[C@@H]1CCC(O)N1C2=O` (mixture of isomers): the T/C by setting is: (dose: 1.0 mg/kg/injection, schedule: Q07DX002 (ip), vehicle: saline) 72 % of control and 78 % of control; (dose: 1.1 mg/kg/injection, schedule: Q07DX002 (ip), vehicle: distilled water + Tween-80) 62 % of control; (dose: 2.2 mg/kg/injection, schedule: Q07DX002 (ip), vehicle: distilled water + Tween-80) 85 % of control; (dose: 4.0 mg/kg/injection, schedule: Q07DX002 (ip), vehicle: saline) 121 % of control and 105 % of control; (dose: 4.5 mg/kg/injection, schedule: Q07DX002 (ip), vehicle: distilled water + Tween-80) 76 % of control; (dose: 8.0 mg/kg/injection, schedule: Q07DX002 (ip), vehicle: saline) 81 % of control and 82 % of control. Also, the T/C by setting is: (dose: 9.0 mg/kg/injection, schedule: Q07DX002 (ip), vehicle: distilled water + Tween-80) 66 % of control; (dose: 16.0 mg/kg/injection, schedule: Q07DX002 (ip), vehicle: saline) 60 % of control.

Turning to `NC(C(=O)O)c1ccc(CBr)cc1` (stereo not given), the T/C under setting [1] is 151 % of control, the T/C under setting [2] is 106 % of control and the T/C under setting [3] is 182 % of control.

With `O=C(Nc1nncs1)c1cccs1`, the T/C under setting [4] was 87 % of control and 88 % of control.

On to `CC1(O)CC23CC(O)C4(O)C(CC(O)C4(C)C)C(C)(O)C2CCC1C3O` (stereo not given), for which the T/C reads like this: (dose: 0.25 mg/kg/injection, schedule: Q07DX002 (ip), vehicle: Klucel (hydroxypropylcellulose) (HPC)) 102 % of control; (dose: 0.5 mg/kg/injection, schedule: Q07DX002 (ip), vehicle: Klucel (hydroxypropylcellulose) (HPC)) 53 % of control.

Take `CC(=S)NC(O)C(=O)c1ccccc1` (stereo not given): the T/C runs as follows: under setting [3], 71 % of control and 82 % of control; under setting [4], 77 % of control and 99 % of control; under setting [5], 98 % of control and 103 % of control; under setting [6], 115 % of control.

Turning to `CC1=NNC(=O)C1CCO` (stereo not given), the T/C by setting is: under setting [7], 97 % of control; (dose: 50.0 mg/kg/injection, schedule: Q07DX002 (ip), vehicle: Klucel (hydroxypropylcellulose) (HPC)) 95 % of control; (dose: 100.0 mg/kg/injection, schedule: Q07DX002 (ip), vehicle: Klucel (hydroxypropylcellulose) (HPC)) 69 % of control; under setting [8], 72 % of control; (dose: 400.0 mg/kg/injection, schedule: Q07DX002 (ip), vehicle: Klucel (hydroxypropylcellulose) (HPC)) 55 % of control; (dose: 800.0 mg/kg/injection, schedule: Q07DX002 (ip), vehicle: Klucel (hydroxypropylcellulose) (HPC)) 77 % of control.

In the case of `C=C1C(=O)OCC1(C(=O)OCC)C(=O)OCC`, the T/C was 42 % of control and 62 % of control and 66 % of control under setting [1]; 88 % of control under setting [3].

On to `C/C=C(\C)C(=O)OC1C(C)=C2C(C1OC(=O)CCCC)C(C)(OC(C)=O)CC(OC(=O)CCCC)C1(O)C2OC(=O)C1(C)O` (stereo not given), for which the T/C runs as follows: (dose: 1.68 mg/kg/injection, schedule: Q07DX002 (ip), vehicle: Klucel (hydroxypropylcellulose) (HPC)) 54 % of control; (dose: 3.37 mg/kg/injection, schedule: Q07DX002 (ip), vehicle: Klucel (hydroxypropylcellulose) (HPC)) 87 % of control; (dose: 6.75 mg/kg/injection, schedule: Q07DX002 (ip), vehicle: Klucel (hydroxypropylcellulose) (HPC)) 61 % of control; (dose: 13.5 mg/kg/injection, schedule: Q07DX002 (ip), vehicle: Klucel (hydroxypropylcellulose) (HPC)) 105 % of control.

For `Cn1ccc(=Nc2ccc(NC(=O)c3ccc(N=c4ccn(C)c5ccc([N+](=O)[O-])cc45)cc3[N+](=O)[O-])cc2)cc1`, the T/C reads like this: under setting [2], 99 % of control; under setting [3], 60 % of control; under setting [4], 105 % of control; under setting [5], 90 % of control; under setting [6], 29 % of control; (dose: 800.0 mg/kg/injection, schedule: Q07DX002 (ip), vehicle: saline with Tween-80) 67 % of control.

Take `CC[C@H]1CN2CCc3cc(OC)c(OC)cc3[C@@H]2C[C@@H]1C[C@H]1NCCc2cc(O)c(OC)cc21`: the T/C is 101 % of control (dose: 3.0 mg/kg/injection, schedule: Q07DX002 (ip), vehicle: suspension in saline); 110 % of control (dose: 6.0 mg/kg/injection, schedule: Q07DX002 (ip), vehicle: suspension in saline); 98 % of control (dose: 12.0 mg/kg/injection, schedule: Q07DX002 (ip), vehicle: suspension in saline); 89 % of control (dose: 24.0 mg/kg/injection, schedule: Q07DX002 (ip), vehicle: suspension in saline).

Consider `Clc1ccc(CN2COc3c(ccc4cccnc34)C2)cc1Cl`, for which the T/C reads like this: under setting [1], 180 % of control; under setting [2], 171 % of control; under setting [3], 110 % of control; under setting [4], 206 % of control.

Turning to `Cc1c2cc[n+](CCN3CCCCC3)cc2c(C)c2c1[nH]c1ccc(O)cc12`, the T/C was 36 % of control under setting [9]; 100 % of control (dose: 3.12 mg/kg/injection, schedule: Q07DX002 (ip), vehicle: suspension in saline); 53 % of control and 61 % of control under setting [10]; 104 % of control under setting [11]; 86 % of control (dose: 12.5 mg/kg/injection, schedule: Q07DX002 (ip), vehicle: suspension in saline); 39 % of control and 64 % of control (dose: 25.0 mg/kg/injection, schedule: Q07DX002 (ip), vehicle: saline). In addition, the T/C was 69 % of control (dose: 25.0 mg/kg/injection, schedule: Q07DX002 (ip), vehicle: suspension in saline); 39 % of control (dose: 50.0 mg/kg/injection, schedule: Q07DX002 (ip), vehicle: suspension in saline); 36 % of control and 47 % of control under setting [12].

`O=C(O[Si](Cc1ccccc1)(Cc1ccccc1)Cc1ccccc1)N(CCCl)CCCl`: the T/C under setting [2] was 77 % of control and 102 % of control; the T/C under setting [4] is 194 % of control; the T/C under setting [5] is 112 % of control.

Turning to `CN(C)c1ccc(C(=C2C=CC(=[N+](C)C)C=C2)c2ccc(N(C)C)cc2)cc1` (tested in a mixture with another compound), the T/C is, setting by setting: (dose: 0.62 mg/kg/injection, schedule: Q07DX002 (ip), vehicle: saline with Tween-80) 61 % of control; (dose: 2.5 mg/kg/injection, schedule: Q07DX002 (ip), vehicle: saline with Tween-80) 71 % of control.

Turning to `CCC1OCC(C(Cl)CCl)O1` (stereo not given), the T/C runs as follows: (dose: 12.5 mg/kg/injection, schedule: Q07DX002 (ip), vehicle: Klucel (hydroxypropylcellulose) (HPC)) 101 % of control; (dose: 12.5 mg/kg/injection, schedule: Q07DX003 (ip), vehicle: Klucel (hydroxypropylcellulose) (HPC)) 82 % of control; under setting [7], 95 % of control and 96 % of control; (dose: 25.0 mg/kg/injection, schedule: Q07DX003 (ip), vehicle: Klucel (hydroxypropylcellulose) (HPC)) 96 % of control; (dose: 50.0 mg/kg/injection, schedule: Q07DX003 (ip), vehicle: Klucel (hydroxypropylcellulose) (HPC)) 92 % of control; (dose: 100.0 mg/kg/injection, schedule: Q07DX003 (ip), vehicle: Klucel (hydroxypropylcellulose) (HPC)) 69 % of control. Besides, the T/C reads like this: under setting [8], 203 % of control; (dose: 200.0 mg/kg/injection, schedule: Q07DX003 (ip), vehicle: Klucel (hydroxypropylcellulose) (HPC)) 67 % of control; (dose: 400.0 mg/kg/injection, schedule: Q07DX003 (ip), vehicle: Klucel (hydroxypropylcellulose) (HPC)) 39 % of control.

For the molecule `CC(=O)NCCCCCCNC(C)=O`, the T/C was 77 % of control under setting [12]; 66 % of control and 81 % of control (dose: 200.0 mg/kg/injection, schedule: Q07DX002 (ip), vehicle: saline); 108 % of control (dose: 400.0 mg/kg/injection, schedule: Q07DX002 (ip), vehicle: saline); 90 % of control and 91 % of control (dose: 1600.0 mg/kg/injection, schedule: Q07DX002 (ip), vehicle: saline).

As to `O=c1[nH]c(=O)n(C2OC(CO)C(O)C2O)cc1F` (stereo not given), the T/C by setting is: under setting [9], 121 % of control; under setting [10], 106 % of control; under setting [13], 64 % of control.

In the case of `ClCC[Se](Cl)(Cl)c1ccccc1`, the T/C is, setting by setting: (dose: 1.56 mg/kg/injection, schedule: Q07DX002 (ip), vehicle: saline) 84 % of control; (dose: 1.56 mg/kg/injection, schedule: Q07DX002 (ip), vehicle: suspension in saline) 83 % of control; under setting [9], 96 % of control; under setting [10], 105 % of control; under setting [11], 88 % of control; under setting [13], 90 % of control.

The values are drawn from PubChem BioAssay AID212 (DTP/NCI, 2004).
